Earlier results, collected in paper PMC11704089, “A Novel Cell-Penetrating Peptide–Vascular Endothelial Growth Factor Small Interfering Ribonucleic Acid Complex That Mediates the Inhibition of Angiogenesis by Human Umbilical Vein Endothelial Cells and in an Ex Vivo Mouse Aorta Ring Model” (Biomaterials Research, 2025).

Tested on: various cell lines

Sequence: RNQRKTVRCFRCRQAGHWISDCRLKSK [Ara27]
- Cytotoxicity: without evidence of cytotoxicity
- Intracellular uptake compared to Tat-protein transduction domain and membrane translocating sequence: significant improvement in intracellular uptake
- Cellular internalization (low concentrations and short treatment conditions, various cell lines): efficiently internalized
